Test results as given in ChEMBL document CHEMBL1127992, “Novel conformationally restricted aromatic piperidines as selective sigma receptor ligands” (Bioorg Med Chem Lett, 1994).

Legend:
D(2) dopamine receptor = D(2) dopamine receptor (Homo sapiens, UniProt P14416); assay: Displacement of [3H]-spiperone from dopamine D2 receptor
[1] = molecular target: Serotonin 2 (5-HT2) receptor (Homo sapiens, UniProt P41595+P28223+P28335); assay: Displacement of [3H]ketanserin from 5-hydroxytryptamine 2 receptor; assay type: protein assay

Chain of D(2) dopamine receptor (P14416 whole entry): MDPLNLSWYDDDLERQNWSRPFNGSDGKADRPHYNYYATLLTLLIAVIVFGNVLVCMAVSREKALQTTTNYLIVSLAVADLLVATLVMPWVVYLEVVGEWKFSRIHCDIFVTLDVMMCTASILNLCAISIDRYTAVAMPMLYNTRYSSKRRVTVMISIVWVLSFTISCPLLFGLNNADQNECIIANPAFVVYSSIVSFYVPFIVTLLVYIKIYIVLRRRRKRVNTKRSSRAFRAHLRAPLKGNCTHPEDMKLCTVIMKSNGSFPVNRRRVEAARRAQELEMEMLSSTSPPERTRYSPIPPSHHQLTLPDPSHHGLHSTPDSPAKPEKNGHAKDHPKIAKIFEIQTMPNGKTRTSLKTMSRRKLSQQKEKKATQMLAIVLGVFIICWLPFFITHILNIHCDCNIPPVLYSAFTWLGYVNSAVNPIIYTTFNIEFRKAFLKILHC

C(=C\c1ccccc1)/CNC1CCN(Cc2ccccc2)CC1.O=C(O)/C=C/C(=O)O
IC50 (D(2) dopamine receptor): > 10 µM | Ki [1]: 4.6 µM

CN(C(=O)C#Cc1ccccc1)C1CCN(Cc2ccccc2)CC1.O=C(O)/C=C/C(=O)O
IC50 (D(2) dopamine receptor): 4.9 µM | Ki [1]: 1.7 µM

CN(C/C=C/c1ccccc1)C1CCN(Cc2ccccc2)CC1.O=C(O)/C=C/C(=O)O
IC50 (D(2) dopamine receptor): > 10 µM | Ki [1]: 0.84 µM

CN(CC#Cc1ccccc1)C1CCN(Cc2ccccc2)CC1.O=C(O)/C=C/C(=O)O
IC50 (D(2) dopamine receptor): 4.1 µM | Ki [1]: 0.32 µM

C(#Cc1ccccc1)CN(c1ccccc1)C1CCN(Cc2ccccc2)CC1.O=C(O)/C=C/C(=O)O
IC50 (D(2) dopamine receptor): 0.89 µM | Ki [1]: 0.28 µM

O=C(C#Cc1ccccc1)NC1CCN(Cc2ccccc2)CC1.O=C(O)/C=C/C(=O)O
IC50 (D(2) dopamine receptor): 2.5 µM | Ki [1]: 0.28 µM

C(=C\c1ccccc1)/CN(c1ccccc1)C1CCN(Cc2ccccc2)CC1.O=C(O)/C=C/C(=O)O
IC50 (D(2) dopamine receptor): > 10 µM | Ki [1]: > 10 µM

C(#Cc1ccccc1)CNC1CCN(Cc2ccccc2)CC1.O=C(O)/C=C/C(=O)O
IC50 (D(2) dopamine receptor): > 10 µM | Ki [1]: 3.3 µM

O=C(/C=C/c1ccccc1)NC1CCN(Cc2ccccc2)CC1.O=C(O)/C=C/C(=O)O
IC50 (D(2) dopamine receptor): 4.7 µM | Ki [1]: 0.1 µM

C(=C\c1ccccc1)/CN(C/C=C/c1ccccc1)C1CCN(Cc2ccccc2)CC1.O=C(O)/C=C/C(=O)O
IC50 (D(2) dopamine receptor): > 10 µM | Ki [1]: 0.55 µM

CN(C(=O)/C=C/c1ccccc1)C1CCN(Cc2ccccc2)CC1.O=C(O)/C=C/C(=O)O
IC50 (D(2) dopamine receptor): 7.1 µM | Ki [1]: 1.5 µM
